Laboratory results: patent publication EP1282414B1, “FELBAMATE DERIVED COMPOUNDS FOR TREATING NEUROPATHIC PAIN” (University of Virginia Patent Foundation, priority 2000, dated 2001)

How the values were obtained:
[1] = LC/MS quantification of felbamate and metabolites in patient urine; format: in vivo, patients
Description: Preparation of Patient Urine Samples. Urine samples were obtained from patient volunteers undergoing felbamate therapy for control of epileptic seizures and under the care of physicians at either the University of Virginia (Charlottesville, Virginia) or the EpiCare Center (Memphis, Tennessee). Urine samples were diluted four fold with distilled water (this was done prior to overnight shipment for samples requiring shipping) and placed in an orbital shaking water bath for ∼ 20 min at 37 °C to insure that all of the analytes were in solution. 500 µL of this diluted sample were removed and added to 100 µL of a mixture of the four deuterated internal standards. […] After mixing, 200 µL were removed and added to 20 µL of 20% H0Ac. This acidified sample was then applied to a preconditioned Waters "Oasis" solid phase extraction cartridge (Waters Corp., Woburn, MA). The cartridge was washed with 2 mL 0.1% HOAc followed by 3 mL 10% CH3CN/90% water (0.1 %) H0Ac. The analytes and internal standards were then eluted with 3 mL 30% CH3CN:70% (0.1 %) HOAc. This fraction was then analyzed by LC/MS without further manipulation.
LC/MS Analysis of Urine Samples for Metabolite Quantification. LC/MS analysis was performed using a Waters 2690 HPLC equipped with an autosampler and a Waters 486 tunable absorbance detector. This LC system was interfaced to a Finnigan MAT LCQ ion trap mass spectrometer. A 10 µL injection of the fraction from solid phase extraction was applied to a Waters Symmetry C8 reversed phase column (33% CH3CN:67% (0.1%) H0Ac, 2.1 mm x 150 mm, 0.2 mL/min). The post-column flow was directed through a Waters 486 tunable absorbance detector (10 µL flow cell, λ = 214 nm) which was used for qualitative assessment of the sample and not for quantitation. The flow was then directed to the electrospray ionization source of the LCQ.
The mass spectrometer was programmed to collect data in full scan mode from 190 - 320 m/z and was tuned to maximize the signal from the analytes under the HPLC conditions. The values for the electrospray parameters were as follows: heated capillary temperature = 180°C; spray voltage = 5.6 kV; capillary voltage = 20 V; sheath gas (nitrogen) flow rate = 70; auxillary gas (helium) flow rate = 20. The automatic gain control (AGC) was on with a target ion count of 7 x 10^7 ions and a maximum ion inject time of 150 ms. […]
Quantification was achieved by integration of the peaks from the mass chromatogram for each analyte using software (Navigator 1.1) provided with the LCQ. The area (expressed as counts x seconds) of the peak for each metabolite was compared to the area for its corresponding deuterated internal standard. As the absolute amount of internal standard added per mL of urine was known, the absolute amount of analyte per mL of urine could be determined.

[2] = system: painful peripheral neuropathy; settings: rat model of painful peripheral neuropathy; cited from earlier work
[3] = patients on felbamate monotherapy; cited from earlier work
[4] = Stability of oxazinane-dione at relevant pH; format: physicochemical
Excerpt: It is anticipated, therefore, that the oxazinane-dione 9 is responsible for some aspects of felbamate's efficacy in vivo. As patients undergoing felbamate therapy for seizure control ingest large quantities of felbamate (grams per day), even a 1 - 2% conversion to a pharmacologically active metabolite could have significant effects. […] In light of the possibility that the oxazinane-dione 9 could be a metabolic precursor to the major human metabolite, acid carbamate 4, it may be formed in significant quantities (the acid carbamate was reported to represent ∼ 12% of a dose). […] Also included in this class are cyclic congeners 21 and 22, which may be formed from felbamate derivatives (see scheme II). Also included is 20, which may be an unknown metabolite of felbamate 1 and could be produced from felbamate derivative 12 by the cytochrome P450 metabolism.

[5] = urine of patients on felbamate therapy, 34 samples

## NC(=O)OCC(COC(N)=O)c1ccccc1 [felbamate, 2-phenyl-1,3-propanediol dicarbamate]
[1]; patient with total daily dose of 3.6 grams of felbamate (lowest of range)
  amount of felbamate excreted per mL of urine: 819 ± 8.5 nmol/mL
[1]; patient with total daily dose of 6.0 grams of felbamate (highest of range)
  amount of felbamate excreted per mL of urine: 10,064 ± 515 nMoles/mL
[2]
  effect on measures of pain (in words): significant reductions in all measures of pain
[3]
  Weight loss: 4-5%

## O=C1NC(=O)C(c2ccccc2)CO1 (stereo not shown) [oxazinane-dione 9]
[4]
  stability at relevant pH (in words): unstable

## CC(=O)N[C@@H](CSCC(CO)c1ccccc1)C(=O)O (stereo partly shown) [Nac-alcohol]
[1]; [5]
  average ratio of Nac-alcohol to Nac-acid: 6.4
  ratio of Nac-alcohol to Nac-acid (range over patients): 2- 14
